The text below walks through data of PMC9247001, “Ligand-induced structural transitions combined with paramagnetic ions facilitate unambiguous NMR assignments of methyl groups in large proteins” (Journal of Biomolecular Nmr, 2022).

SMILES strings stand for the structures. Like-named read-outs stand apart in the source and are kept apart here.

The nature of experiment [1]: 1H NMR titration of di- and trivalent metals over UTP (KD1). Particulars: metal 0-1400 µM, UTP 239.2 or 250 µM, 293 K, 600 MHz, read-out: KD1, dissociation constant for the interaction of UTP with di- and trivalent metals. It is filed as binding.
A further experiment has as its target UTP:LmUGP complex. The experiment in a line: Four-states binding model, metal binding to UTP in complex with LmUGP (KD4). Details: species or system Leishmania major. Particulars: approximated by nonlinear least-squares minimization of the four-states model from KD1-3.
On the set-up of experiment [2]: method as in Zea et al. [2008]. Particulars: isothermal titration calorimetry; ref Zea et al. [2008]; read-out: KD1, dissociation constant for the interaction of UTP with divalent metals (converted); cited from earlier work. (In general: ITC needs no label: the signal is the heat of the interaction.)

For `[Cl][Eu]([Cl])[Cl]` [EuCl3], the Kd in experiment [1] is 28 ± 9 µM; on UTP:LmUGP complex it was 38 ± 12 µM.
Regarding `[Cl-].[Cl-].[Mg+2]` [MgCl2], the Kd in experiment [1] was 82 ± 6 µM; at UTP:LmUGP complex, 115 ± 10 µM; in experiment [2] it was 70 µM.
Take `[Cl][Lu]([Cl])[Cl]` [LuCl3]: the results for the Kd (in experiment [1]; at UTP:LmUGP complex) were 38 ± 17 µM and 46 ± 21 µM, respectively.
As for `[Cl][Mn][Cl]` [MnCl2], in experiment [2], the Kd is 77 ± 12 µM.
Turning to `[Cl][Ce]([Cl])[Cl]` [CeCl3], the Kd in experiment [1] was found to be 13 ± 4 µM; at UTP:LmUGP complex it was 17 ± 5 µM.
Consider `[Cl][La]([Cl])[Cl]` [LaCl3], for which the Kd in experiment [1] was found to be 11 ± 5 µM; at UTP:LmUGP complex it was 15 ± 7 µM.
